{"source": "ChEMBL document CHEMBL1201862", "about": "“PubChem BioAssay data set” (2004)", "key": {"[1]": {"biological_target": "FAD-linked sulfhydryl oxidase ALR (Homo sapiens, UniProt P55789)", "sequence (P55789 whole entry)": "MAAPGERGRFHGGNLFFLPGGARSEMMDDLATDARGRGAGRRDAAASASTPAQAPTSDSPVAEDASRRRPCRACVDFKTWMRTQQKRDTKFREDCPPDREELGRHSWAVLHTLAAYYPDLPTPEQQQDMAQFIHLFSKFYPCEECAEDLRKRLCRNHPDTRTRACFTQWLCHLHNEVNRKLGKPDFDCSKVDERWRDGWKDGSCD", "test": "inhibitors of human ALR sulfhydryl oxidase, dose response, biochemical, H2O2 detection, luminescence, cherry-pick (AID 493248)"}, "[2]": {"biological_target": "T1, Rac GTPase-activating protein 1 (Homo sapiens, UniProt Q9H0H5)", "T1 sequence (Q9H0H5 whole entry)": "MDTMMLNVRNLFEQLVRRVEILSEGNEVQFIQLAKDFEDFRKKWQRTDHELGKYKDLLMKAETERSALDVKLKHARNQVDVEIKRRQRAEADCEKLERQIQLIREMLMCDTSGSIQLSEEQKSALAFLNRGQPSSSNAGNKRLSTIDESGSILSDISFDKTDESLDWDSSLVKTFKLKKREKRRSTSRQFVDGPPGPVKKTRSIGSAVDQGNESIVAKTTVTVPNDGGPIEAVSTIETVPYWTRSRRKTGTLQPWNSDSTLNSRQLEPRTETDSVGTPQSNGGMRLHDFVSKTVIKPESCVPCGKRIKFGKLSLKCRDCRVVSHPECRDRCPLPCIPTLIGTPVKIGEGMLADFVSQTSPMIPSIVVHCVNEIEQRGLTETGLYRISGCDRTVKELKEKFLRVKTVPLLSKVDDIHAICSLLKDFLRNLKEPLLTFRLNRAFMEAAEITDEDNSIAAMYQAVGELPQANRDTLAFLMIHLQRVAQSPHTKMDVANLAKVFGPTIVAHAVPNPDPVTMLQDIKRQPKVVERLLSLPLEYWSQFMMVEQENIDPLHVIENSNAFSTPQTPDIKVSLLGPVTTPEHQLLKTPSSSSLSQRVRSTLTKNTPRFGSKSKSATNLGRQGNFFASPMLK", "test": "MgcRacGAP GTPase-activating activity inhibitors, confirmation, biochemical, ADP Hunter fluorescence, primary and confirmatory (AID 624330)", "assay_type": "functional"}, "[3]": {"biological_target": "T2, Corticotropin-releasing factor receptor 2/Corticotropin-releasing factor-binding protein (Homo sapiens, UniProt P24387+Q13324)", "T2 sequence (Q13324 whole entry)": "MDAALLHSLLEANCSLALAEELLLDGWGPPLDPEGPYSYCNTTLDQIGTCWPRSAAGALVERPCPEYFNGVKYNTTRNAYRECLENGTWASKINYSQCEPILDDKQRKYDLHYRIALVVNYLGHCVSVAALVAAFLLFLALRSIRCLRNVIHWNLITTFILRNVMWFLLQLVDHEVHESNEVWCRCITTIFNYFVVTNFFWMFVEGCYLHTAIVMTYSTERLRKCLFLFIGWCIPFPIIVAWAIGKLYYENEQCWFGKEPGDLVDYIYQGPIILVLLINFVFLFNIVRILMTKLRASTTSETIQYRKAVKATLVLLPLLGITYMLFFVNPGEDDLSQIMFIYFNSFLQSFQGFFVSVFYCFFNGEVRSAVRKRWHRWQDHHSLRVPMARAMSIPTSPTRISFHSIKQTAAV", "T2 sequence (P24387 whole entry)": "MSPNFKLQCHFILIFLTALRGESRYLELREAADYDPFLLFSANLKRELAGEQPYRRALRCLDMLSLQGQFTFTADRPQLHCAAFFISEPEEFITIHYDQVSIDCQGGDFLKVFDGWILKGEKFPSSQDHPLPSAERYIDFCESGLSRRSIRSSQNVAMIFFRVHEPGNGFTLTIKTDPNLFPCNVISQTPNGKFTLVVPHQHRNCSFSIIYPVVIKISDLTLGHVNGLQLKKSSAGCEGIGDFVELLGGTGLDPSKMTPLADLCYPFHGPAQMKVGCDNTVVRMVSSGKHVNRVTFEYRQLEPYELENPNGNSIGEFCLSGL", "test": "activators of CRF receptor 2 with binding protein – uHTS hits, confirmation (AID 602473)", "assay_type": "functional", "conditions": "read-out: EC50_Mean"}, "[4]": {"biological_target": "T2, Corticotropin-releasing factor receptor 2/Corticotropin-releasing factor-binding protein", "test": "Dose Response confirmation of uHTS hits for small molecule antagonists of the CRF-binding protein and CRF-R2 receptor complex.", "assay_type": "functional", "conditions": "read-out: IC50_Mean"}, "[5]": {"test": "inhibitors of SNCA 5'UTR-driven reporter translation, confirmation, H4 neuroglioma cells, luminescence (AID 1988)", "assay_type": "functional, cell-based"}, "[6]": {"test": "inhibitors of firefly luciferase expression or activity, dose response, H4 neuroglioma cells, luminescence (AID 1990)", "assay_type": "functional, cell-based"}, "[7]": {"test": "Luminescence Cell-Based Dose Response HTS to Identify Inhibitors of 5'UTR Stem-Loop Driven Prion Protein mRNA Translation in H4 Neuroglioblastoma Cells. [Related pubchem assays: 1827 (Project Summary), 1813 (Primary HTS)]", "assay_type": "functional"}, "H4": {"system": "H4", "test": "Luminescence Cell-Based Dose Response HTS to Identify Activators of 5'UTR Stem-Loop Driven Prion Protein mRNA Translation in H4 Neuroglioblastoma Cells. [Related pubchem assays: 1829 (Project Summary), 1814 (Primary HTS)]", "assay_type": "functional", "conditions": "Homo sapiens"}, "[8]": {"test": "HEp-2 cell cytotoxicity, dose response, cytotoxicity control for RSV inhibitor project, HTS (AID 2410)", "assay_type": "functional", "conditions": "human respiratory syncytial virus"}, "[9]": {"test": "Luminescence Cell-Based Dose Retest to Confirm Inhibitors of Cancer Stem Cells. [Related pubchem assays (depositor defined):AID2717, AID2721]", "assay_type": "functional", "conditions": "Homo sapiens"}, "Cytochrome P450 2C9": {"biological_target": "Cytochrome P450 2C9 (Homo sapiens, UniProt P11712)", "sequence (P11712 whole entry)": "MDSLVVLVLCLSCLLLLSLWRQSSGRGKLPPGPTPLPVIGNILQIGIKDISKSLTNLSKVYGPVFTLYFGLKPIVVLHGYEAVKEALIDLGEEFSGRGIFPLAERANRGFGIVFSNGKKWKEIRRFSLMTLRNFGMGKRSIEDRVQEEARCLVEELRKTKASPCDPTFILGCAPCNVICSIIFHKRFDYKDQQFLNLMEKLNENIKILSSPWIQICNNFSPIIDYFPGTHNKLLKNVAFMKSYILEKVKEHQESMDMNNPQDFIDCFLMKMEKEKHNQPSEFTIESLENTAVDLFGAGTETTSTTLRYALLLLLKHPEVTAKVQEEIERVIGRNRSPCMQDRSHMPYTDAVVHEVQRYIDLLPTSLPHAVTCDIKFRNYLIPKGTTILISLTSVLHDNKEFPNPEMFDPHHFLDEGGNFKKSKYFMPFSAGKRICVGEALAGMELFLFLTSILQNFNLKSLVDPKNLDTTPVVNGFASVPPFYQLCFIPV"}}, "note": "Calls of active or inactive are those of the source.", "data": [{"smiles": "Cc1ccn2c(NC3CCCCC3)c(C(C)C)nc2c1", "values": [{"measurement": "AC50", "setting": "[1]", "result": "2.82 µM (active)"}]}, {"smiles": "O=C(CN1CCN(c2ccc(O)cc2)CC1)Nc1ccc(S(=O)(=O)N2CCCC2)cc1", "values": [{"measurement": "AC50", "setting": "[1]", "result": "0.699 µM (active)"}]}, {"smiles": "CN(C)c1ccc(CNC(=O)C2CCN(S(=O)(=O)c3ccc4c(c3)CCCC(=O)N4)CC2)cc1", "values": [{"measurement": "AC50", "setting": "[1]", "result": "5.99 µM (active)"}]}, {"smiles": "CCN(Cc1ccncc1)Cc1ccc(OC)c(OC)c1", "values": [{"measurement": "IC50", "setting": "[2]", "result": "190 µM (active)"}]}, {"smiles": "CC(=O)c1c(N2CCCCC2)nc(=S)n(Cc2ccccc2)c1C", "values": [{"measurement": "EC50", "setting": "[3]", "result": "> 53 µM (inactive)"}, {"measurement": "IC50", "setting": "[4]", "result": "> 47.1 µM (inactive)"}]}, {"smiles": "Cc1oc2c(C)c3oc(=O)c(CCC(=O)N4C[C@H]5C[C@@H](C4)c4cccc(=O)n4C5)c(C)c3cc2c1C", "values": [{"measurement": "EC50", "setting": "[5]", "result": "13.5 µM (active)"}, {"measurement": "EC50", "setting": "[6]", "result": "65.1 µM (active)"}, {"measurement": "EC50", "setting": "[7]", "result": "> 120 µM (not active)"}]}, {"smiles": "NNC(=O)c1ccc(O)cc1", "values": [{"measurement": "AC50", "setting": "[1]", "result": "4.28 µM (active)"}]}, {"smiles": "Cc1cccc(N(C(=O)c2sc(C)nc2C)C(C(=O)NCC2CCCO2)c2ccccc2)c1", "note": "(stereo not given)", "values": [{"measurement": "EC50", "setting": "[3]", "result": "> 53 µM (inactive)"}, {"measurement": "IC50", "setting": "[4]", "result": "> 47.1 µM (inactive)"}]}, {"smiles": "CCCCCN(C(=O)CCC(=O)OCC(=O)c1c(C)cc(C)cc1C)c1c(N)n(CCCC)c(=O)[nH]c1=O", "values": [{"measurement": "EC50", "setting": "[3]", "result": "> 53 µM (inactive)"}, {"measurement": "IC50", "setting": "[4]", "result": "> 47.1 µM (inactive)"}]}, {"smiles": "COc1ccc(CNC(=O)CN(C)S(=O)(=O)c2ccc3c(c2)n(C)c(=O)c(=O)n3C)cc1", "values": [{"measurement": "EC50", "setting": "[3]", "result": "> 53 µM (inactive)"}, {"measurement": "IC50", "setting": "[4]", "result": "> 47.1 µM (inactive)"}]}, {"smiles": "COc1cc2ccccc2cc1C(=O)Nc1ccc(N2CCN(C)CC2)cc1", "values": [{"measurement": "EC50", "setting": "H4", "result": "> 120 µM (not active)"}]}, {"smiles": "Cc1ccn2c(NC(C)(C)C)c(-c3cccs3)nc2c1", "values": [{"measurement": "AC50", "setting": "[1]", "result": "1.58 µM (active)"}]}, {"smiles": "Cc1ccc(-n2nc3c(=O)n(CCCC(=O)NCc4cccc(Cl)c4)nc(C)c3c2C)cc1", "values": [{"measurement": "EC50", "setting": "[5]", "result": "61.6 µM (active)"}, {"measurement": "EC50", "setting": "[6]", "result": "14.1 µM (active)"}, {"measurement": "EC50", "setting": "[7]", "result": "74.3 µM (active)"}, {"measurement": "CC50", "setting": "[8]", "result": "28.4 µM (active)"}]}, {"smiles": "O=C(c1ccc(F)cc1)C1CCN(Cc2ccccc2F)CC1", "values": [{"measurement": "EC50", "setting": "[3]", "result": "> 53 µM (inactive)"}, {"measurement": "IC50", "setting": "[4]", "result": "> 47.1 µM (inactive)"}]}, {"smiles": "CCN(CC)c1ccc(/C=N\\NC(N)=O)cc1", "values": [{"measurement": "AC50", "setting": "[1]", "result": "0.825 µM (active)"}, {"measurement": "IC50", "setting": "[2]", "result": "50.7 µM (active)"}]}, {"smiles": "CCc1ccc(/C=N/NC(=O)c2cc(C3CC3)nc3ccc(Br)cc23)s1", "values": [{"measurement": "EC50", "setting": "[5]", "result": "6.9 µM (active)"}, {"measurement": "EC50", "setting": "[6]", "result": "> 120 µM (not active)"}, {"measurement": "EC50", "setting": "[7]", "result": "9.75 µM (active)"}]}, {"smiles": "COCCCNc1nc(S)nc2cc(OC)c(OC)cc12", "values": [{"measurement": "IC50", "setting": "[2]", "result": "69.7 µM (active)"}]}, {"smiles": "COc1ccc(N(CC(=O)NCCc2ccc(OC)c(OC)c2)S(=O)(=O)c2c(C)noc2C)cc1", "values": [{"measurement": "EC50", "setting": "[3]", "result": "> 53 µM (inactive)"}, {"measurement": "IC50", "setting": "[4]", "result": "> 47.1 µM (inactive)"}]}, {"smiles": "C=CCn1c(CNc2ccc(C)cc2)nnc1SCC(=O)N/N=C/c1ccc(O)cc1O", "values": [{"measurement": "AC50", "setting": "[9]", "result": "4.31 µM (active)"}, {"measurement": "IC50", "setting": "[2]", "result": "85.1 µM (active)"}]}, {"smiles": "COc1ccc(CNC(=O)Nc2cccs2)cc1OC", "values": [{"measurement": "EC50", "setting": "[3]", "result": "> 53 µM (inactive)"}, {"measurement": "IC50", "setting": "[4]", "result": "> 47.1 µM (inactive)"}, {"measurement": "AC50", "setting": "Cytochrome P450 2C9", "result": "39.8 µM (inconclusive)"}]}, {"smiles": "CCCOc1ccc(N2C(=O)CC(N3CCC(c4nc5ccccc5o4)CC3)C2=O)cc1", "note": "(stereo not given)", "values": [{"measurement": "EC50", "setting": "[5]", "result": "> 120 µM (not active)"}, {"measurement": "EC50", "setting": "[6]", "result": "> 120 µM (not active)"}, {"measurement": "EC50", "setting": "[7]", "result": "> 60 µM (not active)"}]}]}
